Drawing on US4185015A, “Methoxymethyl 6-[D-2,2-dimethyl-4-(4-hydroxyphenyl)-5-oxo-1-imidazolyl]penicillanate” (priority 1977, dated 1980), this text covers MIC for 1 molecule.

Experiment in all cases: MIC in Nutrient Broth (Table III)
Common to all, as to type: cell-based

For assay [1], the system named is Ent. cloacae. The note with it: Enterobacter cloacae, Ent. cloacae (10^-4). The source says: (§1) Organism in Nutrient Broth
(§2) **Dilution of overnight broth culture

Assay [2] relates to S. aureus Smith. The note with it: Staphylococcus aureus, S. aureus Smith (10^-4).
Excerpt: as §1, §2

For assay [3], the system named is Pr. mirabilis. The settings on record: Proteus mirabilis; Pr. mirabilis (10^-4).
Excerpt: as §1, §2

Assay [4] deals with E. coli Juhl. The note with it: Escherichia coli; E. coli Juhl (10^-4).
Excerpt: as §1, §2

Assay [5] deals with Pr. morganii. The settings on record: Morganella morganii.
Excerpt: as §1, §2

Assay [6] has as its system K. pneumoniae. The note with it: Klebsiella pneumoniae.
Excerpt: as §1, §2

Assay [7] relates to Ps. aeruginosa. The settings on record: Pseudomonas aeruginosa.
Excerpt: as §1, §2

Assay [8] deals with Sal. enteritidis. The note with it: Salmonella enterica; Sal. enteritidis (10^-4).
Excerpt: as §1, §2

Assay [9] concerns E. coli. The note with it: Escherichia coli; E. coli (10^-4).
Excerpt: as §1, §2

The test system of assay [10] is S. aureus BX1633. The settings on record: Staphylococcus aureus.
Excerpt: as §1, §2

Assay [11] relates to S. aureus. The note with it: Staphylococcus aureus; S. aureus+50% serum (10^-4).
Excerpt: as §1, §2

The test system of assay [12] is Ser. marcescens. The note with it: Serratia marcescens; Ser. marcescens (10^-4).
Excerpt: as §1, §2

The subject of assay [13] is S. aureus Meth.-Res. The note with it: Staphylococcus aureus.
Excerpt: as §1, §2

Assay [14] relates to Str. pyogenes. The note with it: Streptococcus pyogenes, 10^-3 dilution of overnight broth culture, 45% AAB, 5% serum, 50% broth.
Excerpt: as §1
(§3) *45% AAB 5% serum 50% broth listed above,
as §2

In assay [15] the test system is Str. pneumoniae. The note with it: Streptococcus pneumoniae, 10^-3 dilution of overnight broth culture, 45% AAB, 5% serum, 50% broth.
Excerpt: as §1, §3, §2

Read-outs that look alike come from different tables or passages of the source.

The term MIC denotes the lowest concentration found to suppress growth. `CC1(C)S[C@@H]2[C@H](NC(=O)[C@H](N)c3ccccc3)C(=O)N2[C@H]1C(=O)O` [Sodium Ampicillin]: the MIC in [1] (first of three lines) was greater than 125 mg/L; in assay [1] (second of three lines, read-out: MIC), 32 mg/L; in [1] (third of three lines, read-out: MIC), 63 mg/L; in [2], 0.06 mg/L; in assay [3], 0.25 mg/L; in assay [4], 2 mg/L. Further, the MIC in assay [5] is greater than 125 mg/L; in assay [6], 125 mg/L; in assay [6] (K. pneumoniae (10^-4), first of two lines, read-out: MIC), 0.5 mg/L; in assay [7], greater than 125 mg/L; in [8] it was 0.13 mg/L; in assay [9] it was 16 mg/L. The MIC in assay [10] (BX1633) is greater than 125 mg/L; in [10] (BX1633, S. aureus BX1633 (10^-3), read-out: MIC) it was 32 mg/L; in assay [11] it was 0.13 mg/L; in [12], 32 mg/L; in [13], greater than 125 mg/L; in assay [13] (S. aureus Meth.-Res. (10^-3), 37° C., read-out: MIC), 32 mg/L. For the same molecule, the MIC in assay [14] was found to be 0.008 mg/L; in [15], 0.016 mg/L.
